In patent publication US12630565B2, “DNA-dependent protein kinase inhibitor” (DIZAL (JIANGSU) PHARMACEUTICAL CO., LTD., priority 2019, dated 2026):

Experiments:
[1] = target: Full length human DNAPK protein (Homo sapiens, UniProt P78527); assay: DNA-PK enzymatic assay (TR-FRET); assay type: biochemical; conditions: 10 μM ATP, 1.6 μM peptide substrate
Rat hepatocyte = assay: Metabolic stability assay (rat hepatocyte Clint); assay type: in vitro ADME; conditions: 1 μM compound, cryopreserved hepatocytes 1 million cells per mL
Method: Viability of cryopreserved hepatocytes was determined using trypan blue and the cell conc. was adjusted to […] with buffer. 1 μM compound (in Acetonitrile; 0.01% DMSO) was incubated with 250 μL of hepatocytecells (1 million cells per mL) in a 96 deep well plate. Reaction was stopped at different time points (0, 0.5, 5, 15, 30, 45, 60, 80, 100 and 120 min) by addition of 3 volumes of chilled acetonitrile to 20 μL of reaction mixture and centrifuged at 4° C. for 15 min. 40 μL of supernatant was diluted to 200 μL with pure water and analyzed using LC-MS/MS.
In vitro hepatocyte clearance was estimated based on determination of elimination half-life (T1/2) of compounds disappearance from their initial concentrations. Peak area ratios of each compound (test or control) to IS was calculated. Drug elimination rate constant k (min−1), T1/2 (min), and in vitro intrinsic clearance CLint (μL/min/E6) was calculated according to the following equations: […]
Where Chep (cells×μL^−1) is the cell concentration in the incubation system.

[2] = Metabolic stability assay (human microsomal Clint); assay type: in vitro ADME; conditions: 1 mg/mL microsomes, 1 mM NADPH, 37° C.; for microsomal CLint at 1 μM: human, pooled human liver microsomes, pH 7.4, 1 μM compound; for Human liver microsomal CLint: 1 μM compound
Method: 1 μM compound was incubated with 1 mg/mL of microsomes (Pooled HLM with 20 mg/ml protein cone) at 37° C. in 250 μL of buffer (100 mM phosphate buffer, pH-7.4) containing 1 mM NADPH solution. 20 μL of incubation mix was quenched with 5 volumes chilled acetonitrile at different time points 0, 0.5, 5, 10, 15, 20 and 30 min in a fresh 96 well plate. The quench plate was centrifuged at 4000 rpm for 15 min. 40 μL of supernatant was diluted to 200 μL with pure water and analyzed using LC-MS/MS.
In vitro intrinsic clearance of the drugs in the microsome CLint (μl/min/mg) was calculated in the similar manner as the CLint in the hepatocyte.

MDR1, BCRP = assay: MDCKII-MDR1-BCRP efflux assay; assay type: in vitro ADME; conditions: dog, pH 7.4, 5 μM compound, HBSS pH 7.4, read-out: MDCK-Mdr1-BCRP efflux ratio
Method: The apical-to-basolateral (A-B) and basolateral-to-apical (B-A) transport of compound in HBSS (25 mM HEPES, pH 7.4) was measured across MDCKII-MDR1-BCRP cell monolayers. Incubations were performed at approximately 37° C. for 120 min, with functionality of the test system being confirmed using 5 μM digoxin as a positive control substrate. Transport of 5 μM compound and control compound were determined by quantifying substrate concentration in the incubation medium of donor compartment at the beginning of the incubation period, and both donor and receiver compartments at the end of the incubation period. The data was used to calculate the apparent permeability (Papp). All incubations were performed in triplicate and integrity of the cell monolayers was confirmed using the marker Lucifer yellow.
The permeability coefficient Pexact (cm/s) was calculated using the equation: […]
The Pexact ratio was calculated using the equation: […]
The efflux ratio was calculated using the equation: […]
Where dCr/dt is the cumulative concentration of compound in the receiver chamber as a function of time (μM/s); Vr is the solution volume in the receiver chamber (0.1 mL on the apical side, 0.3 mL on the basolateral side); A is the surface area for the transport, i.e. 0.11 cm2 for the area of the monolayer; CO is the initial concentration in the donor chamber (μM).

| SMILES | IC50 [1] [nM] | Rat hepatocyte CLint (μl/min/10^−6 cells) (Rat hepatocyte) | microsomal CLint at 1 μM [2] [µL/min/mg] | efflux ratio at 120 min, 5 μM (MDR1, BCRP) | Human liver microsomal CLint [2] [µL/min/mg] |
| --- | --- | --- | --- | --- | --- |
| COC(C)Cn1nc(C)c2cnc(Nc3cn4ncnc4cc3C)nc21 (racemic) [Example 69, 1-(2-methoxypropyl)-3-methyl-N-(7-methyl-[1,2,4]triazolo[1,5-a]pyridin-6-yl)-1H-pyrazolo[3,4-d]pyrimidin-6-amine] | 8.8 | 6.3 | 13.6 | 3 | – |
| Cc1cc2ncnn2cc1Nc1ncc2c(n1)c(C1CCOCC1C)nn2C (single isomer, unassigned) [Example 55, 1-methyl-N-(7-methyl-[1,2,4]triazolo[1,5-a]pyridin-6-yl)-3-(3-methyltetrahydro-2H-pyran-4-yl)-1H-pyrazolo[4,3-d]pyrimidin-5-amine] | 2.5 | – | – | – | – |
| Cc1cc2ncnn2cc1Nc1ncc2c(n1)c(C1CCOCC1C)nn2C (single isomer, unassigned) [Example 56, 1-methyl-N-(7-methyl-[1,2,4]triazolo[1,5-a]pyridin-6-yl)-3-(3-methyltetrahydro-2H-pyran-4-yl)-1H-pyrazolo[4,3-d]pyrimidin-5-amine] | 1.1 | – | – | – | – |
| COCCC(C)n1nc(C)c2cnc(Nc3cn4ncnc4cc3C)nc21 (single isomer, unassigned) [Example 67, 1-(4-methoxybutan-2-yl)-3-methyl-N-(7-methyl-[1,2,4]triazolo[1,5-a]pyridin-6-yl)-1H-pyrazolo[3,4-d]pyrimidin-6-amine] | 27 | 8.3 | 104 | – | – |
| COCCC(C)n1nc(C)c2cnc(Nc3cn4ncnc4cc3C)nc21 (single isomer, unassigned) [Example 68, 1-(4-methoxybutan-2-yl)-3-methyl-N-(7-methyl-[1,2,4]triazolo[1,5-a]pyridin-6-yl)-1H-pyrazolo[3,4-d]pyrimidin-6-amine] | 65.3 | 37.0 | – | – | 201.9 |
| Cc1cc2nccn2cc1Nc1ncc2c(C)nn(C3CCC(F)(F)CC3)c2n1 [Example 22, 1-(4,4-difluorocyclohexyl)-3-methyl-N-(7-methylimidazo[1,2-a]pyridin-6-yl)-1H-pyrazolo[3,4-d]pyrimidin-6-amine] | 1.3 | 40.9 | 115 | – | – |
| Cc1cc2ncnn2cc1Nc1ncc2c(C)nn(CCOC(F)(F)F)c2n1 [Example 64, 3-methyl-N-(7-methyl-[1,2,4]triazolo[1,5-a]pyridin-6-yl)-1-(2-(trifluoromethoxy)ethyl)-1H-pyrazolo[3,4-d]pyrimidin-6-amine] | 3.6 | 38.6 | 50.8 | – | – |
| Cc1cc2nccn2cc1Nc1ncc2c(C)nn(-c3ccc(C#N)cc3)c2n1 [Example 73, 4-(3-methyl-6-((7-methylimidazo[1,2-a]pyridin-6-yl)amino)-1H-pyrazolo[3,4-d]pyrimidin-1-yl)benzonitrile] | 1.3 | – | – | – | – |

The remaining lines, values ahead:

| IC50 [1] [nM] | Rat hepatocyte CLint (μl/min/10^−6 cells) (Rat hepatocyte) | microsomal CLint at 1 μM [2] [µL/min/mg] | efflux ratio at 120 min, 5 μM (MDR1, BCRP) | Human liver microsomal CLint [2] [µL/min/mg] | SMILES |
| --- | --- | --- | --- | --- | --- |
| 2 | 13.3 | 24.5 | 1.6 | – | Cc1cc2ncnn2cc1Nc1ncc2c(C)nn(C3CCCOC3)c2n1 (single isomer, unassigned) [Example 29, 3-methyl-N-(7-methyl-[1,2,4]triazolo[1,5-a]pyridin-6-yl)-1-(tetrahydro-2H-pyran-3-yl)-1H-pyrazolo[3,4-d]pyrimidin-6-amine] |
| 3.5 | 5.2 | 34.5 | – | – | CCC(C)n1nc(C)c2cnc(Nc3cn4ncnc4cc3C)nc21 (single isomer, unassigned) [Example 61, 1-(sec-butyl)-3-methyl-N-(7-methyl-[1,2,4]triazolo[1,5-a]pyridin-6-yl)-1H-pyrazolo[3,4-d]pyrimidin-6-amine] |
| 5.1 | 11.7 | – | – | 42.4 | CCC(C)n1nc(C)c2cnc(Nc3cn4ncnc4cc3C)nc21 (single isomer, unassigned) [Example 62, 1-(sec-butyl)-3-methyl-N-(7-methyl-[1,2,4]triazolo[1,5-a]pyridin-6-yl)-1H-pyrazolo[3,4-d]pyrimidin-6-amine] |
| 4.3 | – | – | – | – | COC(C)Cn1nc(C)c2cnc(Nc3cn4ncnc4cc3C)nc21 (single isomer, unassigned) [Example 70, 1-(2-methoxypropyl)-3-methyl-N-(7-methyl-[1,2,4]triazolo[1,5-a]pyridin-6-yl)-1H-pyrazolo[3,4-d]pyrimidin-6-amine] |
| 6.4 | – | – | – | – | COC(C)Cn1nc(C)c2cnc(Nc3cn4ncnc4cc3C)nc21 (single isomer, unassigned) [Example 71, 1-(2-methoxypropyl)-3-methyl-N-(7-methyl-[1,2,4]triazolo[1,5-a]pyridin-6-yl)-1H-pyrazolo[3,4-d]pyrimidin-6-amine] |
| 1 | 10.8 | 41.4 | – | – | Cc1cc2ncnn2cc1Nc1ncc2c(C)nn([C@H]3CC[C@@H](F)CC3)c2n1 [Example 27, 1-((1s,4s)-4-fluorocyclohexyl)-3-methyl-N-(7-methyl-[1,2,4]triazolo[1,5-a]pyridin-6-yl)-1H-pyrazolo[3,4-d]pyrimidin-6-amine] |
| 1.3 | 14.1 | 70 | – | – | Cc1cc2ncnn2cc1Nc1ncc2c(C)nn([C@H]3CC[C@H](F)CC3)c2n1 [Example 28, 1-((1r,4r)-4-fluorocyclohexyl)-3-methyl-N-(7-methyl-[1,2,4]triazolo[1,5-a]pyridin-6-yl)-1H-pyrazolo[3,4-d]pyrimidin-6-amine] |
| 1.5 | 16.9 | 173 | – | – | Cc1cc2ncnn2cc1Nc1ncc2c(C)nn(C3CC4(CCC4)C3)c2n1 [Example 43, 3-methyl-N-(7-methyl-[1,2,4]triazolo[1,5-a]pyridin-6-yl)-1-(spiro[3.3]heptan-2-yl)-1H-pyrazolo[3,4-d]pyrimidin-6-amine] |
| 4.3 | 64.0 | 70 | – | – | Cc1cc2ncnn2cc1Nc1ncc2c(C)nn(C3CCC3)c2n1 [Example 45, 1-cyclobutyl-3-methyl-N-(7-methyl-[1,2,4]triazolo[1,5-a]pyridin-6-yl)-1H-pyrazolo[3,4-d]pyrimidin-6-amine] |
| 3.3 | 60.9 | 105 | – | – | Cc1cc2ncnn2cc1Nc1ncc2c(C)nn(CC3CCC3)c2n1 [Example 46, 1-(cyclobutylmethyl)-3-methyl-N-(7-methyl-[1,2,4]triazolo[1,5-a]pyridin-6-yl)-1H-pyrazolo[3,4-d]pyrimidin-6-amine] |
| 1.7 | 43.3 | 89.7 | – | – | Cc1cc2ncnn2cc1Nc1ncc2c(C)nn(C3CCCC3)c2n1 [Example 47, 1-cyclopentyl-3-methyl-N-(7-methyl-[1,2,4]triazolo[1,5-a]pyridin-6-yl)-1H-pyrazolo[3,4-d]pyrimidin-6-amine] |
| 1.5 | – | – | – | – | COC1CC2(C1)CC(n1nc(C)c3cnc(Nc4cn5ncnc5cc4C)nc31)C2 (centres unmarked) [Example 54, 1-(6-methoxyspiro[3.3]heptan-2-yl)-3-methyl-N-(7-methyl-[1,2,4]triazolo[1,5-a]pyridin-6-yl)-1H-pyrazolo[3,4-d]pyrimidin-6-amine] |
